Here are results for five compounds from PMC10891803, “Seleno-Warfare against Cancer: Decoding Antitumor Activity of Novel Acylselenoureas and Se-Acylisoselenoureas” (Pharmaceutics, 2024).

In general, IC50 refers to the concentration at which inhibition is half-maximal. In general, inhibition refers to the relative decrease from the control value, in per cent. For orientation: GI50 means the concentration giving 50% growth inhibition. Read a low GI50 as more potent growth inhibition. As usually defined, the melting point is the temperature, or range, at which the solid turns liquid.

The test system of data set [1] is DU-145. The data set is described as follows: MTT cell viability assay, DU-145. The class given is cell-based, human. As to conditions: 48 h; for percentage of cell growth, DU-145: 10 µM, MTT screening (Figure S1); for IC50: Homo sapiens, DU-145, MTT, mean ± SD of three experiments, read-out: IC50 DU-145 (Prostate). As for the experimental part: (§1) The cell lines were purchased from the American Type Culture Collection (ATCC). The four tumor cell lines used were as follows: MDA-MB-231 (triple-negative breast cancer), HTB-54 (lung cancer), DU-145 (prostate cancer), and HCT-116 (colon cancer), and the non-tumoral cell line 185-B5 (mammary tissue) were grown in Roswell Park Memorial Institute (RPMI) 1640 medium culture (Thermo Scientific, USA), supplemented with 10% fetal bovine serum (FBS) (Thermo Scientific, USA) and 1% of antibiotics (10,000 units/mL penicillin and 10 mg/mL streptomycin (Thermo Scientific, USA)). Cells were preserved in tissue culture flasks at 37 °C and 5% CO2. The culture medium was replaced every two to three days.
(§2) Cell viability was determined using the MTT colorimetric assay. A total of 10,000 cells were seeded in each well in a 96-well plate for 24 h. Then, cells were incubated with the corresponding concentration of each tested compound and with DMSO (1%) as control for 48 h. Each compound was dissolved in DMSO at a stock concentration of 0.01 M. Firstly, each compound was tested at 2 concentrations (10 µM and 50 µM) in four human tumoral cell lines MDA-MB-231, HTB-54, DU-145, and HCT-116. Serial dilutions from stock concentration with culture medium were prepared. […] The cell viability was determined by the addition of 20 µL of MTT and its incubation for 2.5 h. Later, the culture medium was removed, and 50 µL of DMSO was added to dissolve formazan crystals. The absorbance was measured at 550 nm. Inhibitory concentration 50 (IC50) and selectivity index (SI) were calculated. Three different experiments were performed independently.
(§3) Cell viability results are expressed as the mean ± standard deviation (SD), and experiments were independently performed thrice in triplicates. IC50 values were determined using a non-linear curve regression analysis calculated by OriginPro 9.0 software.
Background: Formazan colour is commonly taken as a measure of viable cells.

In data set [2] the test system is HTB-54. Description: MTT cell viability assay, HTB-54. As to conditions: 48 h; for percentage of cell growth, HTB-54: 10 µM, MTT screening (Figure S1); for IC50: Homo sapiens, HTB-54, MTT, mean ± SD of three experiments, read-out: IC50 HTB-54 (Lung). The class given is cell-based, human. As for the experimental part:
as §1, §2, §3

Data set [3] deals with MDA-MB-231. Description: MTT cell viability assay, MDA-MB-231. The class given is cell-based, human. The conditions noted are these: for percentage of cell growth, MDA-MB-231: 10 µM, MTT screening (Figure S1); for percentage of cell growth, MDA-MB-231 / IC50: 48 h; for IC50: Homo sapiens, MDA-MB-231, MTT, mean ± SD of three experiments, read-out: IC50 MDA-MB-231 (Breast); for Selectivity index (SI): IC50 184-B5/IC50 MDA-MB-231. As for the experimental part:
as §1, §2, §3

Data set [4] deals with 184-B5. The data set is described as follows: MTT cell viability assay, non-malignant 184-B5. Type of data set: cell-based. The conditions noted are these: Homo sapiens, 48 h, mean ± SD of three experiments, read-out: IC50 184-B5 (Breast, non-tumoral). As for the experimental part: as §1, §2, §3
Data set [5] has as its system HCT-116. The data set is described as follows: MTT cell viability assay, HCT-116. Type of data set: cell-based, human. As to conditions: 10 µM, 48 h, MTT screening (Figure S1). As for the experimental part: as §1, §2, §3
For data set [6], the system named is MDA-MB-231, HTB-54, DU-145, and HCT-116. The data set is described as follows: MTT initial screening in four tumor cell lines. The class given is cell-based. As to conditions: Homo sapiens, in at least three cell lines, 48 h, read-out: cell growth inhibition. As for the experimental part: as §2
Data set [7] has as its system panel of 60 cancer cell lines. Description: NCI60 One-Dose screening. Type of data set: cell-based. As to conditions: 1·10^−5 M, 48 h, mean of 60 cancer cell lines. As for the experimental part: (§4) The ten compounds with the highest cell growth inhibition activity were submitted to the Developmental Therapeutics Program (DTP) of the National Cancer Institute (NCI). The assay consists of the evaluation of the cytotoxicity by a One-Dose screening at 10^−5 M against a panel of 60 cancer cell lines of different tumors (leukemia, lung, central nervous system (CNS), melanoma, ovarian, renal, prostate, and breast cancer cell lines). […] A range of 5000–40,000 cells/well were seeded and cultured in RPMI 1640 containing 5% of FBS and 2 mM L-glutamine and were inoculated into 96-well microtiter plates in 100 µL. The microtiter plates are incubated at 37 °C and 5% humidified CO2 for 24 h prior to the addition of experimental drugs. After that, an experimental drug was added, and the microtiter was incubated for 48 h.

For data set [8], the system named is panel of 60 cancer cell lines. Description: NCI60 Five-Dose assay. The class given is cell-based. The conditions noted are these: Five-Dose assay 0.01–100 µM, 48 h, 60 cell line panel. As for the experimental part: as §4
Data set [9] deals with MDA-MB-231, HTB-54, and DU-145. The data set is described as follows: MTT dose-response in the three tumoral cell lines. The class given is cell-based, human. As to conditions: 48 h, read-out: IC50 toward the tumoral cell lines. As for the experimental part: as §2, §3
The test system of data set [10] is DU-145 cells. Description: Muse Annexin V/7-AAD apoptosis assay. The class given is cell-based, human. The conditions noted are these: DU-145, 2.5 μM, 48 h. As for the experimental part: (§5) The apoptosis assays were conducted using the Muse Caspase-3/7 assay kit and the Annexin V/7-AAD kit (EMD Millipore, Darmstadt, Germany) following the manufacturer’s instructions. Initially, DU-145 cells were seeded in 6-well plates at a density of 1 × 10^5 cells per well. After 24 h of incubation, the cells received treatment with 2.5 µM and 5 µM of compound 4. Subsequently, the cells were incubated for 48 h. Upon completion of the treatment period, the cells were harvested using enzyme-free Cell Dissociation Buffer. The samples were then subjected to the appropriate dyes according to the manufacturer’s instructions and analyzed using the Muse Cell Analyzer (Merck Millipore, Darmstadt, Germany).
Apoptosis was assessed using the Muse Annexin V & Dead Cell assay kit following the manufacturer’s guidelines.

Data set [11] deals with DU-145 cells. Description: Muse Caspase-3/7 assay. The class given is cell-based, human. As to conditions: DU-145, 2.5 and 5 µM, 48 h. As for the experimental part:
as §5

Data set [12] concerns apoptotic proteins in DU-145 cells. Description: Western blot of apoptotic proteins. Type of data set: cell-based, human. The conditions noted are these: DU-145, 5 µM, 24 h. As for the experimental part: Western blot analysis was conducted to evaluate changes in protein expression levels before and after treatment. In brief, DU-145 cells were treated with 5 µM of compound 4, and upon completing the designated treatment duration, cell lysis was achieved using RIPA buffer (Thermo Scientific, USA), supplemented with a protease inhibitor cocktail (Thermo Scientific, USA). Subsequently, the resulting lysates were chilled on ice for 30 min and then centrifuged at 10,000 rpm for 15 min to remove cellular debris. Total protein concentration was determined using the BCA assay (Thermo Scientific, USA). Equivalent quantities of cell lysates were separated using NuPAGE 4–12% gels (Life Technologies, Carlsbad, CA, USA), followed by electro-transfer onto a PVDF membrane. Various antibodies were employed to investigate protein expression levels, with detection accomplished using the Enhanced Chemiluminescent reagent (Life Technologies, USA). All antibodies utilized in this study were procured from Cell Signaling Technologies (Danvers, MA, USA).
Background: In western blotting, separated proteins are transferred to a membrane and probed.

Data set [13] relates to MDA-MB-231 cells. As to conditions: cited from earlier work.
Data set [14] relates to DU-145. More on the design: method as in PMID 11306488. As to conditions: cited from earlier work.

The structures appear in SMILES notation. Like-named read-outs stand apart in the source and are kept apart here. Bounds are passed on as bounds.

In the case of `CC(C)NC(=[Se])NC(=O)c1ccccc1` [Compound 15], the melting point lay within 125 to 127 °C. In addition, in [1], the “percentage of cell growth, DU-145” value is recorded as -80.57% and the IC50 was determined as 5.19 ± 1.55 µM. Besides, in data set [2], the “percentage of cell growth, HTB-54” value is on record as -57.90% and the IC50 was 26.4 ± 16.9 µM. In data set [3], the “percentage of cell growth, MDA-MB-231” value was -59.41%; the IC50 was determined as 24.5 ± 7.55 µM; the “Selectivity index (SI)” value stood at 0.34. Moreover, the IC50 in data set [4] is 8.51 ± 4.81 µM. In addition, the “percentage of cell growth, HCT-116” value in data set [5] stood at 123.90%. For the same compound, the inhibition at 10 µM in [6] was over 50%. Moreover, the “mean value of cell growth, One-Dose assay” value (from here on “mean value of cell growth”) in data set [7] is listed as −31.58%. In addition, in data set [8], the GI50 was under 2 µM.
Consider `CC(=O)Oc1ccccc1C(=O)[Se]C(=NC(C)C)NC(C)C` [Compound 4], for which, in [1], the “percentage of cell growth, DU-145” value is -82.47% and the IC50 was 5.06 ± 0.02 µM. Besides, in data set [2], the “percentage of cell growth, HTB-54” value is listed as -34.81% and the IC50 came out at 7.2 ± 1.81 µM. In data set [3], the “percentage of cell growth, MDA-MB-231” value is -41.78%; the IC50 stood at 5.48 ± 0.42 µM; the “Selectivity index (SI)” value came to 1.75. Further, the IC50 in [4] amounted to 9.6 ± 0.97 µM. Moreover, the “percentage of cell growth, HCT-116” value in [5] stood at 36.77%. Also, the IC50 in [9] was under 7.5 µM. For the same compound, the IC50 in data set [9] (Homo sapiens) is under 10 µM. Also, in [6], the inhibition at 10 µM is over 50%. The “mean value of cell growth” value in [7] is given as −67.93%. In data set [8], this compound yielded a GI50 of under 2 µM. Further, the “cells exhibiting signs of apoptosis” value in [10] is “over 25%”. Further, in data set [11], the “caspase 3/7 activity” value is given as “dose-dependent increase”. For the same compound, in [12], the Bax expression result is reported as “upregulation”; the Bcl-2 expression entry is listed as “Downregulation”; the “caspase-3 cleavage and activation” value is “increased the cleavage and activation”; the “expression of pro-caspase-9” value is reported as “reduction”.
On to `[Se]` [elemental Se], for which the “effect on cell growth” value in [13] (MDA-MB-231 cells incubated alone with Se) is “no effect on cell growth”. Moreover, in [14], the “type of cell death” value is “apoptotic cell death”.
In turn, `CC(=O)Oc1ccccc1C(=O)[Se]C(=NC1CCCCC1)NC1CCCCC1` [Compound 1] yielded a melting point of 96 to 97 °C. Besides, in [1], the “percentage of cell growth, DU-145” value was -96.27% and the IC50 stood at 5.17 ± 0.32 µM. For the same compound, in data set [2], the “percentage of cell growth, HTB-54” value was -52.60% and the IC50 turned out to be 8.31 ± 1.01 µM. In [3], the “percentage of cell growth, MDA-MB-231” value amounted to 39.10%; the IC50 is 8.56 ± 0.1 µM; the “Selectivity index (SI)” value is on record as 1.84. Moreover, the IC50 in data set [4] stood at 15.8 ± 1.33 µM. In data set [5], the “percentage of cell growth, HCT-116” value turned out to be 94.15%. In [6], the inhibition at 10 µM is over 50%. Further, the “mean value of cell growth” value in data set [7] is −68.50%. For the same compound, the GI50 in data set [8] is under 2 µM.
Consider `O=[Se]=O` [SeO2], for which, in data set [13] (MDA-MB-231), the cell viability result was “at least 50%”.
